Assay results reported in US9340493B2, “Hydroxamic acid derivatives useful as antibacterial agents” (Pfizer Inc., priority 2008, dated 2016).
≈ marks a conversion by molar mass, not a printed value.

Tests used:
[1] = biological target: T1, Pseudomonas aeruginosa LpxC enzyme (Pseudomonas aeruginosa, UniProt P47205); assay: IC50 assay, LpxC enzyme from P. aeruginosa; format: biochemical; conditions: 0.5 nM enzyme, 25° C., pH 8.0, 20 min; ** = average of 2-8 assays
T1 construct: made in house; host or cells: E. coli
T1 sequence (P47205 1-303): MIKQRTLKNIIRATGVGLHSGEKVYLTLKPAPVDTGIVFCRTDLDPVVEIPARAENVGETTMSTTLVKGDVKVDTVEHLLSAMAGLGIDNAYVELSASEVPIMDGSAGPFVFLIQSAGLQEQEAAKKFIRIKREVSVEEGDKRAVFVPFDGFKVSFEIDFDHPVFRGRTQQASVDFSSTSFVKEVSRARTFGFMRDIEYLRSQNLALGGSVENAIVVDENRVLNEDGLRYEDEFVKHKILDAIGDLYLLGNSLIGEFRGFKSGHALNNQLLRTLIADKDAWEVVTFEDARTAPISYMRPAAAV
Experimental: IC50 assay, LpxC enzyme from P. aeruginosa: IC50 determination in the LpxC enzyme assay was carried out in a similar manner to that described by S. A. Hyland et al., J. Bacteriology 1997, 179, 2029-2037. [See also T. Kline et al., J. Medicinal Chemistry 2002, 45, 3112-3129.] Briefly, Pseudomonas aeruginosa LpxC enzyme (0.5 nM) purified from E. coli-overexpressing bacteria was incubated at 25° C. in a final volume of 25 ul containing 0.5 uM UDP-3-O—(R-3-hydroxydecanoyl)-N—[^3H-acetyl]glucosamine (B. D. Maxwell and J. C. Bronstein, J. Labeled Compounds and Radiopharmaceuticals 2005, 48, 1049-1054), 1 mg/ml BSA, and 50 mM sodium phosphate buffer, pH 8.0 in the presence and absence of inhibitor compound. At the end of 20 min, 90 ul of a pre-mixed 3% suspension of activated charcoal in 100 mM sodium acetate, pH 7.5, was added to stop the enzyme reaction. The contents of the well were transferred to a filter plate and filtered, and an aliquot of the filtrate was quantitated by liquid scintillation spectrometry. A no-enzyme control was subtracted in order to eliminate background counts.

P. aeruginosa PAO280 = assay: MIC determination, P. aeruginosa PAO280; format: cell-based; conditions: Pseudomonas aeruginosa, PAO280, read-out: MIC (ug/mL) P. aeruginosa PAO280
Experimental: (§1) MIC determinations: The in vitro antibacterial activity of compounds described in the Examples was evaluated by minimum inhibitory concentration (MIC) testing according to Clinical and Laboratory Standards Institute (CLSI, formerly NCCLS) guidelines. See: Clinical and Laboratory Standards Institute. Methods for Dilution Antimicrobial Susceptibility Tests for Bacteria that Grow Aerobically; Approved Standard-Seventh Edition. CLSI document M7-A7 [ISBN 1-56238-587-9]. Clinical and Laboratory Standards Institute, 940 West Valley Road, Suite 1400, Wayne, Pa. 19087-1898 USA, 2006; also Clinical and Laboratory Standards Institute. Performance Standards for Antimicrobial Susceptibility Testing; Eighteenth Informational Supplement. CLSI document M100-S18 [ISBN1-56238-653-0]. Clinical and Laboratory Standards Institute.
(§2) The following bacterial strains were used:
Pseudomonas aeruginosa PA0280: lacks efflux pumps MexAB-oprM, MexXY and MexZ

P. aeruginosa UI-18 = assay: MIC determination, P. aeruginosa UI-18; format: cell-based; conditions: Pseudomonas aeruginosa, UI18; wild-type; * = arithmetic mean of 2-6 MIC determinations; read-out: MIC (ug/mL) P. aeruginosa UI-18
Experimental: as §1, §2
P. aeruginosa UI-18: Wild-type;

[2] = tested on: Staphylococcus aureus ATCC 29213; assay: MIC determination, S. aureus ATCC 29213; format: cell-based; conditions: ATCC29213, CLSI quality control reference strain, * = arithmetic mean of 2-6 MIC determinations, read-out: MIC (ug/mL) S. aureus ATCC 29213
Experimental: as §1, §2
Staphylococcus aureus ATCC 29213: CLSI quality control reference strain; and […]

[3] = tested on: Acinetobacter baumanii/haemolyticus; assay: MIC determination, A. baumanii/haemolyticus; format: cell-based; conditions: Acinetobacter baumannii; multidrug-resistant clinical isolate; * = arithmetic mean of 2-6 MIC determinations; read-out: MIC (ug/mL) A. baumanii/haemolyticus
Experimental: as §1, §2
Acinetobacter baumanii/haemolyticus: Multidrug-resistant clinical isolate;

Enterobacter aerogenes = assay: MIC determination, E. aerogenes; format: cell-based; conditions: Klebsiella aerogenes; quinolone-resistant, ESBL-expressing clinical isolate; * = arithmetic mean of 2-6 MIC determinations; read-out: MIC (ug/mL) E. aerogenes
Experimental: as §1, §2
Enterobacter aerogenes: Quinolone-resistant isolate, expresses extended-spectrum beta-lactamases (ESBL), clinical isolate;

Escherichia coli EC-1 = assay: MIC determination, E. coli EC-1; format: cell-based; conditions: EC1, EC-1: VOGEL, * = arithmetic mean of 2-6 MIC determinations, read-out: MIC (ug/mL) E. coli EC-1
Experimental: as §1, §2
Escherichia coli EC-1: VOGEL;

Klebsiella pneumoniae = assay: MIC determination, K. pneumoniae; format: cell-based; conditions: ciprofloxacin-resistant, ESBL-expressing clinical isolate, * = arithmetic mean of 2-6 MIC determinations, read-out: MIC (ug/mL) K. pneumoniae
Experimental: as §1, §2
Klebsiella pneumoniae: Ciprofloxacin-resistant isolate, expresses extended-spectrum beta-lactamases (ESBL), clinical isolate;

## C[C@@](OCc1ccc(-c2ccccc2)cc1)(C(=O)NO)[C@@H](O)c1cc(COP(=O)(O)O)on1 [Example 47, trisodium {3-[(1S,2S)-2-(biphenyl-4-ylmethoxy)-1-hydroxy-2-methyl-3-(oxidoamino)-3-oxopropyl]isoxazol-5-yl}methyl phosphate]
[1]
  IC50: 0.00565 µM

## CC(CO)(OCc1ccc(-c2ccc(-c3csnn3)cc2)cc1)C(=O)NO (centres unmarked) [Example 59, N,3-dihydroxy-2-methyl-2-{[4′-(1,2,3-thiadiazol-4-yl)biphenyl-4-yl]methoxy}propanamide]
[1]
  IC50: 0.00402 µM
P. aeruginosa PAO280
  MIC: 1 µg/mL (≈ 2.59 µM)
P. aeruginosa UI-18
  MIC: > 64 µg/mL
[2]
  MIC: > 64 µg/mL

## CC(CO)(OCc1ccc(-c2ccc(C3=NNC(=O)CC3)cc2)cc1)C(=O)NO (centres unmarked) [Example 60, N,3-dihydroxy-2-methyl-2-{[4′-(6-oxo-1,4,5,6-tetrahydropyridazin-3-yl)biphenyl-4-yl]methoxy}propanamide]
[1]
  IC50: 0.0105 µM
P. aeruginosa PAO280
  MIC: 4 µg/mL (≈ 10.1 µM)
P. aeruginosa UI-18
  MIC: > 64 µg/mL
[2]
  MIC: > 64 µg/mL

## CN(C)S(=O)(=O)c1ccc(-c2ccc(COC(C)(CO)C(=O)NO)cc2)cc1 (centres unmarked) [Example 61, 2-({4′-[(dimethylamino)sulfonyl]biphenyl-4-yl}methoxy)-N,3-dihydroxy-2-methylpropanamide]
[1]
  IC50: 0.0602 µM
P. aeruginosa PAO280
  MIC: 16 µg/mL (≈ 39.2 µM)
P. aeruginosa UI-18
  MIC: > 64 µg/mL
[2]
  MIC: > 64 µg/mL

## Cc1cc(F)ccc1-c1ccc(COC(C)(CO)C(=O)NO)cc1 (centres unmarked) [Example 63, 2-[(4′-fluoro-2′-methylbiphenyl-4-yl)methoxy]-N,3-dihydroxy-2-methylpropanamide]
[1]
  IC50: 0.0174 µM
P. aeruginosa PAO280
  MIC: 4 µg/mL (≈ 12 µM)
P. aeruginosa UI-18
  MIC: > 64 µg/mL
[2]
  MIC: > 64 µg/mL

## CC(CO)(OCc1ccc(-c2cccc(F)c2)cc1)C(=O)NO (centres unmarked) [Example 64, 2-[(3′-fluorobiphenyl-4-yl)methoxy]-N,3-dihydroxy-2-methylpropanamide]
[1]
  IC50: 0.00757 µM
P. aeruginosa PAO280
  MIC: 4 µg/mL (≈ 12.5 µM)
P. aeruginosa UI-18
  MIC: > 64 µg/mL
[2]
  MIC: > 64 µg/mL

## COc1cccc(-c2ccc(COC(C)(CO)C(=O)NO)cc2)c1F (centres unmarked) [Example 65, 2-[(2′-fluoro-3′-methoxybiphenyl-4-yl)methoxy]-N,3-dihydroxy-2-methylpropanamide]
[1]
  IC50: 0.00579 µM
P. aeruginosa PAO280
  MIC: 1 µg/mL (≈ 2.86 µM)
P. aeruginosa UI-18
  MIC: 64 µg/mL (≈ 183 µM)
[2]
  MIC: > 64 µg/mL

## CC(OCc1ccc(-c2ccccc2)cc1)(C(=O)NO)C(=O)NCC1(O)CCCC1 (centres unmarked) [Example 68, 2-(biphenyl-4-ylmethoxy)-N-hydroxy-N′-[(1-hydroxycyclopentyl)methyl]-2-methylmalonamide]
[1]
  IC50: 0.0955 µM
P. aeruginosa PAO280
  MIC: 4 µg/mL (≈ 9.7 µM)
P. aeruginosa UI-18
  MIC: > 64 µg/mL
[2]
  MIC: > 64 µg/mL

## Cc1ccc(CNC(=O)C(C)(OCc2ccc(-c3ccccc3)cc2)C(=O)NO)cc1 (centres unmarked) [Example 72, 2-(biphenyl-4-ylmethoxy)-N-hydroxy-2-methyl-N′-(4-methylbenzyl)malonamide]
[1]
  IC50: 0.0307 µM
P. aeruginosa PAO280
  MIC: 4 µg/mL (≈ 9.56 µM)
P. aeruginosa UI-18
  MIC: > 16 µg/mL
[2]
  MIC: > 16 µg/mL

## Cn1cc(CCNC(=O)C(C)(OCc2ccc(-c3ccccc3)cc2)C(=O)NO)cn1 (centres unmarked) [Example 73, 2-(biphenyl-4-ylmethoxy)-N-hydroxy-2-methyl-N′-[2-(1-methyl-1H-pyrazol-4-yl)ethyl]malonamide]
[1]
  IC50: 0.0156 µM
P. aeruginosa PAO280
  MIC: 1 µg/mL (≈ 2.37 µM)
P. aeruginosa UI-18
  MIC: > 64 µg/mL
[2]
  MIC: > 64 µg/mL

## COCCNC(=O)C(C)(OCc1ccc(-c2ccccc2)cc1)C(=O)NO (centres unmarked) [Example 74, 2-(biphenyl-4-ylmethoxy)-N-hydroxy-N′-(2-methoxyethyl)-2-methylmalonamide]
[1]
  IC50: 0.0139 µM
P. aeruginosa PAO280
  MIC: 1 µg/mL (≈ 2.69 µM)
P. aeruginosa UI-18
  MIC: 64 µg/mL (≈ 172 µM)
[2]
  MIC: > 64 µg/mL

## CC(OCc1ccc(-c2ccccc2)cc1)(C(=O)NO)C(=O)NC[C@@H]1CCCO1 (stereo partly drawn) [Example 75, 2-(biphenyl-4-ylmethoxy)-N-hydroxy-2-methyl-N′-[(2S)-tetrahydrofuran-2-ylmethyl]malonamide]
[1]
  IC50: 0.0126 µM
P. aeruginosa PAO280
  MIC: 1 µg/mL (≈ 2.51 µM)
P. aeruginosa UI-18
  MIC: 64 µg/mL (≈ 161 µM)
[2]
  MIC: > 64 µg/mL

## CC(OCc1ccc(-c2ccccc2)cc1)(C(=O)NO)C(=O)NCCc1cscn1 (centres unmarked) [Example 76, 2-(biphenyl-4-ylmethoxy)-N-hydroxy-2-methyl-N′-[2-(1,3-thiazol-4-yl)ethyl]malonamide]
[1]
  IC50: 0.00848 µM
P. aeruginosa PAO280
  MIC: 0.5 µg/mL (≈ 1.18 µM)
P. aeruginosa UI-18
  MIC: 64 µg/mL (≈ 150 µM)
[2]
  MIC: > 64 µg/mL

## CC(=O)NCCNC(=O)C(C)(OCc1ccc(-c2ccccc2)cc1)C(=O)NO (centres unmarked) [Example 77, N-(2-acetamidoethyl)-2-(biphenyl-4-ylmethoxy)-N′-hydroxy-2-methylmalonamide]
[1]
  IC50: 0.00612 µM
P. aeruginosa PAO280
  MIC: 1 µg/mL (≈ 2.5 µM)
P. aeruginosa UI-18
  MIC: 64 µg/mL (≈ 160 µM)
[2]
  MIC: > 64 µg/mL

## Cc1n[nH]c(C)c1CNC(=O)C(C)(OCc1ccc(-c2ccccc2)cc1)C(=O)NO (centres unmarked) [Example 78, 2-(biphenyl-4-ylmethoxy)-N-[(3,5-dimethyl-1H-pyrazol-4-yl)methyl]-N′-hydroxy-2-methylmalonamide]
[1]
  IC50: 0.0055 µM
P. aeruginosa PAO280
  MIC: 1 µg/mL (≈ 2.37 µM)
P. aeruginosa UI-18
  MIC: 64 µg/mL (≈ 151 µM)
[2]
  MIC: > 64 µg/mL

## Cc1nnc(CCNC(=O)C(C)(OCc2ccc(-c3ccccc3)cc2)C(=O)NO)[nH]1 (centres unmarked) [Example 79, 2-(biphenyl-4-ylmethoxy)-N-hydroxy-2-methyl-N′-[2-(5-methyl-4H-1,2,4-triazol-3-yl)ethyl]malonamide]
[1]
  IC50: 0.00288 µM
P. aeruginosa PAO280
  MIC: 1 µg/mL (≈ 2.36 µM)
P. aeruginosa UI-18
  MIC: 64 µg/mL (≈ 151 µM)
[2]
  MIC: > 64 µg/mL

## Cc1ncsc1CCNC(=O)C(C)(OCc1ccc(-c2ccccc2)cc1)C(=O)NO (centres unmarked) [Example 80, 2-(biphenyl-4-ylmethoxy)-N-hydroxy-2-methyl-N′-[2-(4-methyl-1,3-thiazol-5-yl)ethyl]malonamide]
[1]
  IC50: 0.00899 µM
P. aeruginosa PAO280
  MIC: 0.5 µg/mL (≈ 1.14 µM)
P. aeruginosa UI-18
  MIC: 64 µg/mL (≈ 146 µM)
[2]
  MIC: > 64 µg/mL

## CC(OCc1ccc(-c2ccccc2)cc1)(C(=O)NO)C(=O)NCCO (centres unmarked) [Example 81, 2-(biphenyl-4-ylmethoxy)-N-hydroxy-N′-(2-hydroxyethyl)-2-methylmalonamide]
[1]
  IC50: 0.0261 µM
P. aeruginosa PAO280
  MIC: 1 µg/mL (≈ 2.79 µM)
P. aeruginosa UI-18
  MIC: 64 µg/mL (≈ 179 µM)
[2]
  MIC: > 64 µg/mL

## CCN1CC(CNC(=O)C(C)(OCc2ccc(-c3ccccc3)cc2)C(=O)NO)CC1=O (centres unmarked) [Example 82, 2-(biphenyl-4-ylmethoxy)-N-[(1-ethyl-5-oxopyrrolidin-3-yl)methyl]-N′-hydroxy-2-methylmalonamide]
[1]
  IC50: 0.0486 µM
P. aeruginosa PAO280
  MIC: 4 µg/mL (≈ 9.1 µM)
P. aeruginosa UI-18
  MIC: > 64 µg/mL
[2]
  MIC: > 64 µg/mL

## CNC(=O)C(C)(OCc1ccc(-c2ccccc2)cc1)C(=O)NO (centres unmarked) [Example 93, 2-(biphenyl-4-ylmethoxy)-N-hydroxy-N′,2-dimethylmalonamide]
P. aeruginosa PAO280
  MIC: 0.125 µg/mL (≈ 0.381 µM)
P. aeruginosa UI-18
  MIC: 8 µg/mL (≈ 24.4 µM)
[3]
  MIC: > 64 µg/mL
Enterobacter aerogenes
  MIC: > 64 µg/mL
Escherichia coli EC-1
  MIC: 32 µg/mL (≈ 97.5 µM)
Klebsiella pneumoniae
  MIC: 64 µg/mL (≈ 195 µM)
[2]
  MIC: > 64 µg/mL
